What all share (experiment): DTP human tumour cell line panel, 48 h
In experiment [1] the test system is COLO 205.
Experiment [2] concerns HOP-62.
Experiment [3] relates to NCI/ADR-RES.
Experiment [4] deals with MDA-MB-231.
For experiment [5], the system named is DU-145.
Experiment [6] deals with HOP-92.
For experiment [7], the system named is EKVX.
Experiment [8] relates to HCT-116.
The subject of experiment [9] is Malme-3M.
Experiment [10] concerns NCI-H23.
In experiment [11] the test system is MCF7.
Experiment [12] deals with OVCAR-3.
Experiment [13] has as its system KM12.
Experiment [14] deals with MDA-N.
For experiment [15], the system named is SK-MEL-5.
Experiment [16] has as its system K562.
Experiment [17] relates to HL-60.
Experiment [18] relates to RXF 393.
Experiment [19] has as its system UACC-62.
Experiment [20] deals with SF-539.

Counter-ions that a name gives are not always drawn.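 Method: 48-hour compound exposure of cells in 96-well plates, five concentrations, linear interpolation of endpoints. GI50 is the concentration that inhibits growth by half.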 Active and inactive are the calls of the source. No stated cut-off is given here; in the data, active = GI50 up to about 1.1 µM and inactive = higher.

As for `CN(C)CCOC(c1ccccc1)c1ccccc1` [DIPHENHYDRAMINE HYDROCHLORIDE], the GI50 (commonly the concentration giving 50% growth inhibition) in experiment [1] is > 100 µM (inactive); in [2] it was > 100 µM (inactive); in experiment [3], > 100 µM (inactive); in experiment [4] it was > 100 µM (inactive); in experiment [5] it was > 100 µM (inactive); in experiment [6] it was 25 µM (inactive). In addition, the GI50 in [7], in [8], in experiment [9], in experiment [10], in experiment [11] and in experiment [12] was > 100 µM (inactive) each time. The GI50 in experiment [13], in [14], in experiment [15], in [16] and in experiment [17] was > 100 µM (inactive) throughout.

On to `CC(C)(C)c1cc(C2COC(c3cc(C(C)(C)C)c(O)c(C(C)(C)C)c3)CO2)cc(C(C)(C)C)c1O` (centres undefined), for which the GI50 in [1] was 33.1 µM (inactive); in experiment [2] it was > 100 µM (inactive); in experiment [3] it was > 100 µM (inactive); in experiment [4] it was > 100 µM (inactive); in experiment [18] it was > 100 µM (inactive); in experiment [5], > 100 µM (inactive). The GI50 was > 100 µM (inactive) in [6]; > 100 µM (inactive) in experiment [7]; 51.6 µM (inactive) in experiment [8]; > 100 µM (inactive) in experiment [9]; > 100 µM (inactive) in experiment [10]; > 100 µM (inactive) in [11]. In addition, the GI50 in experiment [19], in experiment [12], in [13], in experiment [14], in experiment [15] and in experiment [20] was > 100 µM (inactive) each time. Further, the GI50 in experiment [16] is > 100 µM (inactive).

On to `CC(=O)OCC(OC(C)=O)C1C[C@H]2O[C@@H]3[C@H](C[C@H]2O1)O[C@@]1(C[C@@H]3C)C[C@H](C)[C@@H]2O[C@]3(C[C@@H]2O1)C[C@H]1O[C@H]2[C@H](C)[C@H]4OC(=O)C[C@H]5CC[C@@H]6OC7[C@H]8O[C@]9(CC[C@H]%10CC(=O)[C@H](CC[C@H]%11C[C@@H](C)C(=O)C(C[C@@H]4O[C@H]2C[C@H]1O3)O%11)O%10)CC8O[C@@H]7[C@@H](O9)[C@H]6O5` (some centres undefined), for which the GI50 was 0.00281 µM (active) in [1]; 0.00505 µM (active) in experiment [2]; 0.102 µM (active) in experiment [3]; 0.0199 µM (active) in experiment [4]; 0.00283 µM (active) in experiment [18]; 0.00423 µM (active) in [5]. Besides, the 50% growth inhibitory concentration (GI50) in experiment [6] is 0.0611 µM (active); in experiment [7], 0.0201 µM (active); in [8], 0.00234 µM (active); in experiment [10] it was 0.00267 µM (active); in experiment [11], 0.00151 µM (active); in experiment [19], 0.00248 µM (active). The GI50 in experiment [12] was 0.00319 µM (active); in [13], 0.00183 µM (active); in [14], 0.000321 µM (active); in [15], 0.000458 µM (active); in [16], 0.00123 µM (active); in experiment [17], 0.000489 µM (active).

With `O=c1[nH]c(=O)n(COCc2ccccc2)c2ccc(Br)cc12`, the GI50 is > 100 µM (inactive) in [1]; 37 µM (inactive) in experiment [3]; > 100 µM (inactive) in [4]; > 100 µM (inactive) in experiment [18]; > 100 µM (inactive) in [5]; > 100 µM (inactive) in [6]. Besides, the GI50 in experiment [7] was 96.8 µM (inactive); in experiment [8], > 100 µM (inactive); in [11] it was > 100 µM (inactive); in experiment [19], > 100 µM (inactive); in experiment [12] it was 85.3 µM (inactive); in experiment [13] it was > 100 µM (inactive). Further, the GI50 in [14] was > 100 µM (inactive); in [15], 99.3 µM (inactive); in experiment [20], > 100 µM (inactive); in experiment [16] it was > 100 µM (inactive); in [17], > 100 µM (inactive).

As to `COc1ccc(P2(=S)OCCOP(=S)(c3ccc(OC)cc3)S2)cc1` (centres undefined), the GI50 in experiment [1] is 3.56 µM (inactive); in experiment [2], 3.58 µM (inactive); in experiment [3], 4.41 µM (inactive); in [4], 3.13 µM (inactive); in experiment [5], 3.74 µM (inactive); in [6] it was 10.4 µM (inactive). Further, the GI50 in experiment [7] is > 21.8 µM (inactive); in experiment [8] it was 3.28 µM (inactive); in experiment [9] it was 13.7 µM (inactive); in experiment [10], 4.7 µM (inactive); in experiment [11], 3.62 µM (inactive); in experiment [19] it was 4.16 µM (inactive). For the same compound, the GI50 was 2.52 µM (inactive) in experiment [12]; 2.87 µM (inactive) in experiment [13]; 2.29 µM (inactive) in experiment [14]; 3.02 µM (inactive) in experiment [15]; 2.76 µM (inactive) in experiment [20]; 2.51 µM (inactive) in [16]. For the same compound, the GI50 in experiment [17] was 2.64 µM (inactive).

In the case of `COC(=O)c1ccc(NC(=O)O/N=C(\Cl)C(C)C)cc1`, the GI50 in [1] is 1.94 µM (inactive); in experiment [2] it was 18.7 µM (inactive); in experiment [3], 5.71 µM (inactive); in experiment [4], 7.08 µM (inactive); in experiment [18] it was 6.21 µM (inactive); in [5], 18.5 µM (inactive). Moreover, the GI50 was 1.81 µM (inactive) in experiment [6]; 3.22 µM (inactive) in experiment [7]; 5.61 µM (inactive) in experiment [8]; 1.56 µM (inactive) in experiment [9]; 17.1 µM (inactive) in [10]; 5.7 µM (inactive) in [11]. The GI50 in [19] is 13.1 µM (inactive); in experiment [12], 1.97 µM (inactive); in [13], 15.1 µM (inactive); in [14] it was 8.89 µM (inactive); in [15] it was 4.53 µM (inactive); in [16], 1.3 µM (inactive). Moreover, the GI50 in [17] is 1.36 µM (inactive).

For the compound `Cc1ccc(S(=O)(=O)N/N=C2/CC3CCC4CC2CC34)cc1` (centres undefined), the GI50 is 55 µM (inactive) in [1]; > 100 µM (inactive) in [2]; > 100 µM (inactive) in experiment [3]; > 100 µM (inactive) in experiment [4]; > 100 µM (inactive) in experiment [5]; > 100 µM (inactive) in [6]. The GI50 in experiment [7] was 61.5 µM (inactive); in [8] it was > 100 µM (inactive); in [9] it was > 100 µM (inactive); in [10] it was > 100 µM (inactive); in experiment [11], > 100 µM (inactive); in [19] it was > 100 µM (inactive). Further, the GI50 is > 100 µM (inactive) in experiment [12]; > 100 µM (inactive) in [13]; > 100 µM (inactive) in [14]; 84.7 µM (inactive) in [15]; > 100 µM (inactive) in experiment [20]; 93.5 µM (inactive) in experiment [16]. Besides, the GI50 in experiment [17] is > 100 µM (inactive).

Turning to `c1ccc(-c2sc(-c3cccs3)cc2Cc2cccs2)cc1`, the GI50 in experiment [1], in experiment [2], in experiment [3], in experiment [4], in experiment [18] and in experiment [5] was > 10 µM (inactive) in each case. Besides, the GI50 in [6], in [7], in experiment [8], in experiment [9], in [10] and in experiment [11] was > 10 µM (inactive) in each case. The GI50 in [19], in experiment [13], in experiment [14], in [15], in experiment [20] and in experiment [16] was > 10 µM (inactive) in each case. In addition, the GI50 in [17] was > 10 µM (inactive).

As for `CNc1c2cccc(C)c2nc2c(C(=O)NCCN(C)C)cccc12`, the 50% growth inhibitory concentration (GI50) was 0.0423 µM (active) in [1]; 0.164 µM (active) in experiment [2]; 0.265 µM (active) in experiment [3]; < 0.0498 µM (active) in experiment [4]; 0.0716 µM (active) in experiment [18]; 0.0946 µM (active) in [5]. Moreover, the 50% growth inhibitory concentration (GI50) is 0.122 µM (active) in [6]; 0.151 µM (active) in experiment [7]; 0.0377 µM (active) in experiment [8]; 0.169 µM (active) in [9]; 0.107 µM (active) in experiment [10]; < 0.045 µM (active) in experiment [11]. For the same compound, the concentration for 50% growth inhibition (GI50) was 0.167 µM (active) in [19]; 0.214 µM (active) in experiment [12]; 0.127 µM (active) in experiment [13]; 0.0841 µM (active) in experiment [14]; 0.18 µM (active) in [15]; 0.0249 µM (active) in experiment [16]. Also, the GI50 in [17] is 0.0847 µM (active).

Consider `Cc1cc2nc(N3C(=O)/C(=C/c4ccc(N(C)C)cc4)N=C3c3ccccc3)sc2cc1C`, for which the GI50 is 18 µM (inactive) in experiment [1]; > 100 µM (inactive) in experiment [2]; 28.6 µM (inactive) in experiment [3]; 26 µM (inactive) in experiment [4]; 18.5 µM (inactive) in experiment [18]; 50.4 µM (inactive) in [5]. Moreover, the GI50 in experiment [6] was 15.2 µM (inactive); in experiment [7] it was 23 µM (inactive); in [8], 17 µM (inactive); in experiment [11] it was 0.515 µM (active); in [19], 20.3 µM (inactive); in experiment [12], 41.5 µM (inactive). In addition, the GI50 in experiment [13] is 26 µM (inactive); in [14], 11.6 µM (inactive); in experiment [15], 15.2 µM (inactive); in experiment [20], 22.2 µM (inactive); in [16], 25.9 µM (inactive); in [17] it was 16.9 µM (inactive).

The record behind these values is ChEMBL document CHEMBL1201862, “PubChem BioAssay data set” (2004).
